{"source": "patent US4159373A", "about": "“7-Acyl-3-(sulfonic acid and sulfamoyl substituted tetrazolyl thiomethyl) cephalosporins” (SmithKline Corporation, priority 1978, dated 1979)", "key": {"[1]": {"system": "E. coli HH 33779", "assay": "MIC in vitro", "format": "cell-based", "settings": "Escherichia coli, HH33779, Table 1; E. coli HH 33779; read-out: MIC in vitro", "experimental": "(§1) The compounds of Formula I have exceptional antibacterial activity against both Gram-positive and Gram-negative organisms. Minimum inhibitory concentrations (MIC's) ranged from 0.2 to <200 μg./ml. in in vitro testing."}, "[2]": {"system": "E. coli SK 12140", "assay": "MIC in vitro", "format": "cell-based", "experimental": "as §1"}, "[3]": {"system": "Proteus morgani 179", "assay": "MIC in vitro", "format": "cell-based", "experimental": "as §1"}, "[4]": {"system": "S. aureus HH 127", "assay": "MIC in vitro", "format": "cell-based", "settings": "Staphylococcus aureus", "experimental": "as §1"}, "[5]": {"system": "S. aureus SK 23390", "assay": "MIC in vitro", "format": "cell-based", "settings": "Staphylococcus aureus, SK23390, Table 1; S. aureus SK 23390; read-out: MIC in vitro", "experimental": "as §1"}, "[6]": {"system": "Salmonella ATCC 12176", "assay": "MIC in vitro", "format": "cell-based", "settings": "Salmonella, ATCC12176, Table 1, read-out: MIC in vitro", "experimental": "as §1"}, "[7]": {"system": "Strep. Faecalis HH 34358", "assay": "MIC in vitro", "format": "cell-based", "settings": "Enterococcus faecalis", "experimental": "as §1"}, "[8]": {"system": "Kleb. pneumo. SK 1200", "assay": "MIC in vitro", "format": "cell-based, Kleb. pneumoniae", "settings": "Klebsiella pneumoniae", "experimental": "as §1"}, "[9]": {"system": "Kleb. pneumo. SK 4200", "assay": "MIC in vitro", "format": "cell-based, Kleb. pneumoniae", "settings": "Klebsiella pneumoniae", "experimental": "as §1"}, "[10]": {"system": "Psuedo. sp. HH 63", "assay": "MIC in vitro", "format": "cell-based, Pseudo. aeruginosa", "experimental": "as §1"}, "[11]": {"system": "Entero. aerog. ATCC 13048", "assay": "MIC in vitro", "format": "cell-based, Enterobacter aerogenes", "settings": "Klebsiella aerogenes", "experimental": "as §1"}, "[12]": {"system": "Serra. marc ATCC 13880", "assay": "MIC in vitro", "format": "cell-based, Serratia marcescens", "settings": "Serratia marcescens", "experimental": "as §1"}, "[13]": {"system": "Staph. aureus 671", "assay": "MIC in vitro", "format": "cell-based"}, "[14]": {"system": "Staph. aureus 674", "assay": "MIC in vitro", "format": "cell-based"}, "[15]": {"system": "E. coli 804", "assay": "MIC in vitro", "format": "cell-based"}, "[16]": {"system": "Kleb. pneumoniae 982", "assay": "MIC in vitro", "format": "cell-based"}, "[17]": {"system": "Pseudo. aeruginosa 647", "assay": "MIC in vitro", "format": "cell-based"}, "[18]": {"system": "Proteus mirabilis 444", "assay": "MIC in vitro", "format": "cell-based"}, "[19]": {"system": "Enterobacter cloacae 921", "assay": "MIC in vitro", "format": "cell-based"}, "[20]": {"system": "E. coli 12140", "assay": "In vivo mouse protection, E. coli 12140", "settings": "Escherichia coli, 12140, sc, s.c."}, "[21]": {"system": "Kleb. pneumo. 4200", "assay": "In vivo mouse protection, Kleb. pneumo. 4200", "settings": "sc"}, "[22]": {"settings": "Example 54 table, read-out: MIC"}}, "note": "Read-outs that look alike come from different tables or passages of the source."}
{"molecule": "Cc1nnc(SCC2=C(C(=O)O)N3C(=O)[C@@H](NC(=O)Cn4cnnn4)[C@H]3SC2)s1", "note": "[XIII, Cefazolin, reference compound]", "values": [{"measurement": "MIC", "setting": "[1]", "result": 0.8, "unit": "µg/mL"}, {"measurement": "MIC", "setting": "[2]; Escherichia coli, SK12140, Example 54 table, E. coli SK&F 12140, read-out: MIC", "result": 0.8, "unit": "µg/mL"}, {"measurement": "MIC", "setting": "[2]; Escherichia coli, SK12140, Table 1, E. coli SK 12140, read-out: MIC in vitro", "result": 0.8, "unit": "µg/mL"}, {"measurement": "MIC", "setting": "[2]; Example 55 table, E. coli SK&F 12140", "result": 0.8, "unit": "µg/mL"}, {"measurement": "MIC", "setting": "[3]; [22]", "result": "> 100", "unit": "µg/mL"}, {"measurement": "MIC", "setting": "[3]; Example 55 table, read-out: MIC", "result": "> 100", "unit": "µg/mL"}, {"measurement": "MIC", "setting": "[3]; Table 1, read-out: MIC in vitro", "result": 200, "unit": "µg/mL"}, {"measurement": "MIC", "setting": "[4]; HH127, Example 54 table, Staph. aureus HH 127", "result": 0.8, "unit": "µg/mL"}, {"measurement": "MIC", "setting": "[4]; HH127, Table 1, S. aureus HH 127, read-out: MIC in vitro", "result": 0.4, "unit": "µg/mL"}, {"measurement": "MIC", "setting": "[4]; Example 55 table, Staph. aureus HH127, read-out: MIC", "result": 0.4, "unit": "µg/mL"}, {"measurement": "MIC", "setting": "[5]", "result": 0.2, "unit": "µg/mL"}, {"measurement": "MIC", "setting": "[6]", "result": 0.8, "unit": "µg/mL"}, {"measurement": "MIC", "setting": "[7]; Example 54 table, Strep. faecalis HH 34358, read-out: MIC", "result": 25, "unit": "µg/mL"}, {"measurement": "MIC", "setting": "[7]; Example 55 table, Strep. faecalis HH 34358, read-out: MIC", "result": 12.5, "unit": "µg/mL"}, {"measurement": "MIC", "setting": "[7]; Table 1, Strep. Faecalis HH 34358, read-out: MIC in vitro", "result": 6.3, "unit": "µg/mL"}, {"measurement": "MIC", "setting": "[8]; Example 54 table, Kleb. pneumoniae SK&F 1200, read-out: MIC", "result": 0.4, "unit": "µg/mL"}, {"measurement": "MIC", "setting": "[8]; Example 55 table, Kleb. pneumoniae SK&F 1200, read-out: MIC", "result": 0.8, "unit": "µg/mL"}, {"measurement": "MIC", "setting": "[8]; Table 1, Kleb. pneumo. SK 1200, read-out: MIC in vitro", "result": 0.8, "unit": "µg/mL"}, {"measurement": "MIC", "setting": "[9]; Example 54 table, Kleb. pneumoniae SK&F 4200, read-out: MIC", "result": 3.1, "unit": "µg/mL"}, {"measurement": "MIC", "setting": "[9]; Example 55 table, Kleb. pneumoniae SK&F 4200, read-out: MIC", "result": 1.6, "unit": "µg/mL"}, {"measurement": "MIC", "setting": "[9]; Table 1, Kleb. pneumo. SK 4200, read-out: MIC in vitro", "result": 0.8, "unit": "µg/mL"}, {"measurement": "MIC", "setting": "[10]; Example 55 table, Pseudo. aeruginosa HH63", "result": "> 100", "unit": "µg/mL"}, {"measurement": "MIC", "setting": "[10]; Pseudomonas aeruginosa, Example 54 table, Pseudo. aeruginosa HH 63, read-out: MIC", "result": "> 100", "unit": "µg/mL"}, {"measurement": "MIC", "setting": "[10]; Pseudomonas aeruginosa, Table 1, Psuedo. sp. HH 63, read-out: MIC in vitro", "result": "> 200", "unit": "µg/mL"}, {"measurement": "MIC", "setting": "[11]; ATCC13048, Example 54 table, Enterobacter aerogenes 13048, read-out: MIC", "result": 3.1, "unit": "µg/mL"}, {"measurement": "MIC", "setting": "[11]; ATCC13048, Example 55 table, Enterobacter aerogenes 13048, read-out: MIC", "result": 3.1, "unit": "µg/mL"}, {"measurement": "MIC", "setting": "[11]; ATCC13048, Table 1, Entero. aerog. ATCC 13048, read-out: MIC in vitro", "result": 1.6, "unit": "µg/mL"}, {"measurement": "MIC", "setting": "[12]; ATCC13880, Example 54 table, Serratia marcescens ATCC 13880, read-out: MIC", "result": "> 100", "unit": "µg/mL"}, {"measurement": "MIC", "setting": "[12]; ATCC13880, Example 55 table, Serratia marcescens ATCC 13880, read-out: MIC", "result": "> 100", "unit": "µg/mL"}, {"measurement": "MIC", "setting": "[12]; ATCC13880, Table 1, Serra. marc ATCC 13880, read-out: MIC in vitro", "result": 200, "unit": "µg/mL"}, {"measurement": "MIC", "setting": "[13]; Staphylococcus aureus, 671, Example 55 table", "result": 12.5, "unit": "µg/mL"}, {"measurement": "MIC", "setting": "[13]; Staphylococcus aureus, Example 54 table", "result": 0.8, "unit": "µg/mL"}, {"measurement": "MIC", "setting": "[14]; Staphylococcus aureus, 674, Example 54 table", "result": 0.4, "unit": "µg/mL"}, {"measurement": "MIC", "setting": "[14]; Staphylococcus aureus, 674, Example 55 table", "result": 0.2, "unit": "µg/mL"}, {"measurement": "MIC", "setting": "[15]; Escherichia coli, Example 54 table, read-out: MIC", "result": 100, "unit": "µg/mL"}, {"measurement": "MIC", "setting": "[15]; Example 55 table", "result": 100, "unit": "µg/mL"}, {"measurement": "MIC", "setting": "[16]; Example 55 table", "result": "> 100", "unit": "µg/mL"}, {"measurement": "MIC", "setting": "[16]; Klebsiella pneumoniae, Example 54 table, read-out: MIC", "result": "> 100", "unit": "µg/mL"}, {"measurement": "MIC", "setting": "[17]; Example 55 table", "result": "> 100", "unit": "µg/mL"}, {"measurement": "MIC", "setting": "[17]; Pseudomonas aeruginosa, Example 54 table, read-out: MIC", "result": "> 100", "unit": "µg/mL"}, {"measurement": "MIC", "setting": "[18]; [22]", "result": 3.1, "unit": "µg/mL"}, {"measurement": "MIC", "setting": "[18]; Example 55 table", "result": 3.1, "unit": "µg/mL"}, {"measurement": "MIC", "setting": "[19]; Enterobacter cloacae, 921, Example 54 table", "result": 25, "unit": "µg/mL"}, {"measurement": "MIC", "setting": "[19]; Enterobacter cloacae, 921, Example 55 table", "result": 6.3, "unit": "µg/mL"}, {"measurement": "ED50", "setting": "[20]; Example 54, E. coli SKF 12140, read-out: ED50", "result": 4.4, "unit": "mg/kg"}, {"measurement": "ED50", "setting": "[20]; Example 55, E. coli SKF 12140, read-out: ED50", "result": 3.12, "unit": "mg/kg"}, {"measurement": "ED50", "setting": "[20]; Table 2, E. coli 12140, read-out: ED50 in vivo", "result": 4, "unit": "mg/kg"}, {"measurement": "ED50", "setting": "[21]; Example 54, s.c., K. pneumo. SKF 4200, read-out: ED50", "result": 0.7, "unit": "mg/kg"}, {"measurement": "ED50", "setting": "[21]; Example 55, s.c., K. pneumo. SK&F 4200, read-out: ED50", "result": 8.7, "unit": "mg/kg"}, {"measurement": "ED50", "setting": "[21]; Table 2, Kleb. pneumo. 4200, s.c., read-out: ED50 in vivo", "result": 6.25, "unit": "mg/kg"}]}
